Experimental data taken from patent publication US11666586B2, “Compositions and methods for treating acne vulgaris” (Dermala, Inc., priority 2016, dated 2023).
In brackets after ≈: the same amount, converted by molar mass. Where two headings read alike, the source gives them in different places.

Tests used:
P. acnes (ATCC 6919) = assay: Minimum Inhibitory Concentration (MIC) determination, microbroth dilution; type: cell-based, Propionibacterium acnes; conditions: API alone, 48 h anaerobic, ≥90% reduction in growth (OD600); for MIC: Cutibacterium acnes, ATCC6919, read-out: individual MIC
Description: P. acnes (ATCC 6919) was cultured on Brucella plates supplemented with 0.1 g/L hemin, 0.01 g/L vitamin K, and 5% (v/v) defibrinated sheep's blood at 37° C. under anaerobic conditions using a Gas-Pak (BD). For each assay, an inoculum of P. acnes was prepared by suspending a colony of P. acnes in 5 mL Reinforced Clostridium medium (RCM) and growing at 37° C. and 250 RPM under anaerobic conditions for 30 hours. […] Individual MIC values were determined for each drug according to the microbroth dilution method. […] Media without P. acnes and medium with P. acnes only were used for negative and positive controls, respectively, and contained the highest concentration of solvent used in each drug analysis. Plates were incubated under anaerobic conditions using a Gas-Pak (BD) for 48 hours at 37° C. Following incubation, each well was resuspended by pipetting and the optical density at 600 nm (OD600) was determined on a plate reader.

[1] = system: S. epidermidis (ATCC 12228); assay: Fermentation of prebiotics by S. epidermidis; type: cell-based, Staphylococcus epidermidis; conditions: 2% prebiotic, six days anaerobic, compared to PBS control
Description: Preparation of Prebiotics: Glycerol, sucrose, β-lactose, and D-(+)-maltose were purchased from Sigma-Aldrich. Stock solutions of each prebiotic (4% w/v) were prepared in water and filtered through a 0.22 μm filter for sterilization.
Preparation of S. epidermidis conditioned media: S. epidermidis (ATCC 12228) was cultured on trypic soy broth (TSB) agar plates at 37° C. For each assay, an inoculum of S. epidermidis was prepared by suspending one colony of S. epidermidis from a TSB agar plate into 7 ml of TSB broth and growing at 37° C., 215 RPM for 16 hours. The overnight culture was subcultured by adding 100 μl of overnight culture to 10 ml of fresh TSB. Once mid-log phase was reached, the cells were pelleted by centrifugation, washed with PBS and resuspended in fresh PBS. In 15 ml culture tubes, 4.9 ml of Rich Broth (20 g/L yeast extract, 6 g/L TSB) was combined with 40 μl 0.5% phenol red indicator, 5 ml of 4% prebiotic (glycerol, sucrose, β-lactose, or D-(+)-maltose) or PBS as a control, and S. epidermidis (10^5 CFU/ml) and placed in an anaerobic Gas-Pak (BD). The cultures were incubated at 37° C., 215 RPM for 6 days. Following fermentation, the cells were pelleted and the supernatants were filtered through a 0.22 μm filter for sterilization.
No change in color occurred in PBS control (a).

[2] = Testing of combination products in human subjects with acne; conditions: spot treatment
Source text: The Formulation 1 was applied using Acne Treatment Pads one or two times per day.

P. acnes = conditions: serial passage, 10 cycles of 72 hours, method written in future tense
Source text: Resistance development may be measured by two methods: single step for the determination of spontaneous frequency of resistance development and serial passage for the determination of progressive resistance development.

P. acnes 6919 = assay: Time-kill assay; type: cell-based, Propionibacterium acnes; conditions: DRM1 30 mM or salicylic acid […] mM alone (2× MIC); combination […] + […]; RCM broth with 12% propylene glycol
[3] = system: P. acnes strains RMA#20660 and RMA#20661; assay: MIC against multi-resistant P. acnes strains; type: cell-based, Propionibacterium acnes
Description: Individual MIC values were determined for each drug according to the microbroth dilution method. Briefly, 2-fold serial dilutions of each drug (50 μl) were added to wells in a 96-well plate followed by 50 μl of the prepared P. acnes inoculum as described in Example 1. Media without P. acnes and medium with P. acnes only were used for negative and positive controls, respectively, and contained the highest concentration of solvent used in each drug analysis. Plates were incubated under anaerobic conditions using a Gas-Pak (BD) for 48 hours at 37° C. Following incubation, each well was resuspended by pipetting and the optical density at 600 nm (OD600) was determined on a plate reader.

biofilm-forming strains = system: biofilm-forming strains
Source text: Biofilm formation is an important factor in P. acnes pathogenicity and biofilm is detected in approximately half of hair follicles of acne patients.

Row | MIC (P. acnes (ATCC 6919); P. acnes ATCC 6919) | SMILES | MIC (P. acnes (ATCC 6919); P. acnes 6919) | acidification of media (phenol red colour) by S. epidermidis fermentation [1] | also measured
1 | – | CCC[C@@H]1C[C@@H](C(=O)N[C@@H]([C@H]2O[C@H](SC)[C@H](O)[C@@H](O)[C@H]2O)[C@H](C)Cl)N(C)C1 [Clindamycin, clindamycin, reference compound] | 0.063 µg/mL | – | –
2 | – | OC[C@H]1O[C@@H](O[C@H]2[C@H](O)[C@@H](O)[C@H](O)O[C@@H]2CO)[C@H](O)[C@@H](O)[C@H]1O [β-lactose] | – | change of color from red to yellow | –
3 | – | OCC(O)CO [glycerol] | – | change of color from red to yellow | –
4 | 7.5 mM | O=C(O)CCCCCCCC(=O)O [Azelaic acid, azelaic acid, reference compound] | – | – | –
5 | – | OC[C@H]1O[C@H](O[C@H]2[C@H](O)[C@@H](O)[C@H](O)O[C@@H]2CO)[C@H](O)[C@@H](O)[C@@H]1O [D-(+)-maltose] | – | change of color from red to yellow | –
6 | – | OC[C@H]1O[C@@](CO)(O[C@H]2O[C@H](CO)[C@@H](O)[C@H](O)[C@H]2O)[C@@H](O)[C@@H]1O [sucrose] | – | change of color from red to yellow | –
7 | – | O=C(OOC(=O)c1ccccc1)c1ccccc1 [BPO, benzoyl peroxide, reference compound] | 125 µg/mL | – | individual MIC (P. acnes (ATCC 6919); P. acnes 6919): 125 µg/mL; hyperpigmentation (dark spot side effect) [2]: dark spot side effect observed
8 | 1.88 mM | O=C(O)c1ccccn1 [Picolinic acid, picolinic acid] | – | – | –
9 | 7.5 mM | O=C(O)c1ccccc1O [Salicylic Acid, salicylic acid, reference compound] | – | – | growth on plate after 15 minutes (P. acnes 6919): growth was evident

Row | SMILES | MIC (P. acnes (ATCC 6919); P. acnes ATCC 6919) | MIC (P. acnes (ATCC 6919); P. acnes 6919) | acidification of media (phenol red colour) by S. epidermidis fermentation [1] | also measured
10 | O=C(O)CCC(=O)O [DRM1, succinic acid] | 15 mM | 1770 µg/mL | – | individual MIC (P. acnes (ATCC 6919); P. acnes 6919): 1771 µg/mL; individual MIC (P. acnes (ATCC 6919); P. acnes ATCC 6919): 15 mM; spontaneous or progressive resistance development (P. acnes): did not develop spontaneous or progressive resistance; growth on plate after 15 minutes (P. acnes 6919): growth was evident; MIC ([3]; Cutibacterium acnes, each of RMA#20660 and RMA#20661 (resistant to erythromycin, clindamycin, minocycline, doxycycline), ≥90% decrease in growth, OD600): 15 mM (≈ 1770 µg/mL); bactericidal activity against antibiotic-resistant P. acnes strains ([3]; RMA#20660 and RMA#20661): bactericidal; concentration preventing biofilm formation (biofilm-forming strains): ≥ 7.5 mM
